Test results from PubChem BioAssay AID1963975 (Molecular Pharmacology Branch, DTP, NCI, 2024).

System: 624824-186-R-J2-PDC multicell spheroids, viability
Assay: Anticancer human tumor 624824-186-R-J2-PDC patient-derived colon adenocarcinoma cell line growth inhibition [PI3K]
Conditions: for IC50: curve of first compound; for viability, T/C: stronger effect = lower value
Summary of the method: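 Combination activity was assessed by viability in multicellular tumor spheroids carrying HUVEC and MSC components. Agents were tested with PI3K inhibitors from a Cmax-based top dose (or 10 microM) downward in half-log increments.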
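Also: spheroids exposed to agents for 7 days before viability read.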
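For viability, T/C in this document: 100% = DMSO vehicle treated spheroids.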

Cn1nccc1Nc1nccc(-c2ccn(C(CO)c3ccc(Cl)c(F)c3)c(=O)c2)n1 (configuration not stated) + CC(Nc1ncnc2nc[nH]c12)c1cc2cccc(Cl)c2c(=O)n1-c1ccccc1
IC50 (second compound 0.0316 µM): > 10 µM | IC50 (second compound 0.1 µM): > 10 µM | IC50 (second compound 0.316 µM): > 10 µM | IC50 (second compound 1 µM): > 10 µM | IC50 (second compound 3.16 µM): > 10 µM | IC50 (second compound 10 µM): > 10 µM | viability, T/C (second compound 0.0316 µM, first compound 0.0316 µM): 73.9% | viability, T/C (second compound 0.0316 µM, first compound 0.1 µM): 61.6% | viability, T/C (second compound 0.0316 µM, first compound 0.316 µM): 72.4% | viability, T/C (second compound 0.0316 µM, first compound 1 µM): 76.7% | viability, T/C (second compound 0.0316 µM, first compound 3.16 µM): 87.6% | viability, T/C (second compound 0.0316 µM, first compound 10 µM): 85.4% | viability, T/C (second compound 0.1 µM, first compound 0.0316 µM): 110% | viability, T/C (second compound 0.1 µM, first compound 0.1 µM): 83.8% | viability, T/C (second compound 0.1 µM, first compound 0.316 µM): 78% | viability, T/C (second compound 0.1 µM, first compound 1 µM): 74.7% | viability, T/C (second compound 0.1 µM, first compound 3.16 µM): 82.4% | viability, T/C (second compound 0.1 µM, first compound 10 µM): 89.6% | viability, T/C (second compound 0.316 µM, first compound 0.0316 µM): 90.7% | viability, T/C (second compound 0.316 µM, first compound 0.1 µM): 94% | viability, T/C (second compound 0.316 µM, first compound 0.316 µM): 59.5% | viability, T/C (second compound 0.316 µM, first compound 1 µM): 66.1% | viability, T/C (second compound 0.316 µM, first compound 3.16 µM): 82.1% | viability, T/C (second compound 0.316 µM, first compound 10 µM): 83.7% | viability, T/C (second compound 1 µM, first compound 0.0316 µM): 96% | viability, T/C (second compound 1 µM, first compound 0.1 µM): 87.4% | viability, T/C (second compound 1 µM, first compound 0.316 µM): 67.8% | viability, T/C (second compound 1 µM, first compound 1 µM): 74.2% | viability, T/C (second compound 1 µM, first compound 3.16 µM): 80.3% | viability, T/C (second compound 1 µM, first compound 10 µM): 79.7% | viability, T/C (second compound 3.16 µM, first compound 0.0316 µM): 106% | viability, T/C (second compound 3.16 µM, first compound 0.1 µM): 70.2% | viability, T/C (second compound 3.16 µM, first compound 0.316 µM): 61.9% | viability, T/C (second compound 3.16 µM, first compound 1 µM): 77.7% | viability, T/C (second compound 3.16 µM, first compound 3.16 µM): 75.5% | viability, T/C (second compound 3.16 µM, first compound 10 µM): 63.7% | viability, T/C (second compound 10 µM, first compound 0.0316 µM): 82.1% | viability, T/C (second compound 10 µM, first compound 0.1 µM): 90.2% | viability, T/C (second compound 10 µM, first compound 0.316 µM): 85.9% | viability, T/C (second compound 10 µM, first compound 1 µM): 70.8% | viability, T/C (second compound 10 µM, first compound 3.16 µM): 67.8% | viability, T/C (second compound 10 µM, first compound 10 µM): 61%
